Among the data in US8361998B2, “Compounds and their use as IKACh blockers” (AstraZeneca AB, priority 2010, dated 2013) are IC50 values, retold here.

This assay addresses T1, human cardiac ion channel proteins hKir3.1/Kir3.4 (Homo sapiens, UniProt P48544+P48549).
T1 construct: expressed in transfected cells
T1 sequence (P48549 1-501): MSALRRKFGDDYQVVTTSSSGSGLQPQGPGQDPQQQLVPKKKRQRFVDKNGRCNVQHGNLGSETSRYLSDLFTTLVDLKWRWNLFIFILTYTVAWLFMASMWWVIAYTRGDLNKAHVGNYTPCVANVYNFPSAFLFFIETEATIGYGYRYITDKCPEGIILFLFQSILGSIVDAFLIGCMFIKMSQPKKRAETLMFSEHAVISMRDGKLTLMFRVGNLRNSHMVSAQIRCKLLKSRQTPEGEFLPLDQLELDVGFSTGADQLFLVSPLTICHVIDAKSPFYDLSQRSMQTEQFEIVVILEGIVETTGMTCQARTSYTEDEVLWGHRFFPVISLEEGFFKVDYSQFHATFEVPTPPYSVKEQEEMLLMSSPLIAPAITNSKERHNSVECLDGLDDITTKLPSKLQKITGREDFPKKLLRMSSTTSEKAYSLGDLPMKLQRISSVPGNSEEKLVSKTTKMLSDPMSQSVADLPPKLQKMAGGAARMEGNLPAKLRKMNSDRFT
T1 sequence (P48544 1-419): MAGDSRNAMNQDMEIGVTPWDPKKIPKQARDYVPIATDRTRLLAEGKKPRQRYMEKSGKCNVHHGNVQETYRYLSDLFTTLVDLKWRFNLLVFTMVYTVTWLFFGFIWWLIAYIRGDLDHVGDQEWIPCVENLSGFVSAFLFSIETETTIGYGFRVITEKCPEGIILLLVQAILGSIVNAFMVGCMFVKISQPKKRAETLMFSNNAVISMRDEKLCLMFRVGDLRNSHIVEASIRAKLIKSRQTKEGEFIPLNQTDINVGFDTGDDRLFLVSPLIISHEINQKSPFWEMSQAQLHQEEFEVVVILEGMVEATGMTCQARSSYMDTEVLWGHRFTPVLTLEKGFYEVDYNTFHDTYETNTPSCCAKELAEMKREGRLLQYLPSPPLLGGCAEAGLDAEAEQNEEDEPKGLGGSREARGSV
Nature of the assay: Atomic Absorption Screening (AAS) Rb efflux assay of hKir3.1/Kir3.4 block, carbachol/high K+ stimulated, 10-pt or 7-pt CR. The class given is cell-based. The conditions noted are these: AAS Rb efflux, CHO-K1 cells expressing hKir3.1/Kir3.4. In short, it runs like this: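 CHO-K1 cells stably co-expressing human Kir3.1/Kir3.4 were Rb-loaded for 3 h at 37° C, preincubated with compound 5 min at RT, then stimulated 10 min with 10 μM carbachol plus 20 mM KCl (final). Supernatant Rb was measured by atomic absorption. Compounds ran at 0.003–67 μmol/L (10-pt) or 0.037–27 μmol/L (7-pt), threefold dilutions; IC50s are means of >4 or >3 replicates respectively.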

Setting [1] is: 7-pt CR (0.037 to 27 μmol/L), mean of >3 replicates, read-out: IKACh IC50 7-pt CR, AAS.
Setting [2] is: 10-pt CR (0.003 to 67 μmol/L), mean of >4 replicates, read-out: IKACh IC50 10-pt CR, AAS.

Like-named read-outs stand apart in the source and are kept apart here.

Turning to `Cc1c(F)cccc1C(=O)N(C)[C@H](CN1CC[C@H](O)C1)C(C)C` [Example 16.45, 3-Fluoro-N—((S)-1-((S)-3-hydroxypyrrolidin-1-yl)-3-methylbutan-2-yl)-N,2-dimethylbenzamide], the IC50 under setting [1] worked out at 16 µM.

`CC(C)[C@@H](CN1CC[C@H](O)C1)N(C)C(=O)c1ccc(F)cc1C(F)(F)F` [Example 16.46, 4-Fluoro-N—((S)-1-((S)-3-hydroxypyrrolidin-1-yl)-3-methylbutan-2-yl)-N-methyl-2-(trifluoromethyl)benzamide]: the IC50 under setting [1] is 19 µM.

On to `CC(C)[C@@H](CN1CCCC1)N(C)C(=O)c1ccc(Cl)cc1Cl` [Example 16.47, (S)-2,4-Dichloro-N-methyl-N-(3-methyl-1-(pyrrolidin-1-yl)butan-2-yl)benzamide], for which, under setting [1], the IC50 came out at 0.56 µM.

On to `CC(C)[C@@H](CN1CCCC1)N(C)C(=O)c1cccc(Cl)c1` [Example 16.48, (S)-3-Chloro-N-methyl-N-(3-methyl-1-(pyrrolidin-1-yl)butan-2-yl)benzamide], for which the IC50 under setting [1] worked out at 4.2 µM.

With `CC(C)c1ccc(C(=O)N(C)[C@H](CN2CCCC2)C(C)C)cc1` [Example 16.49, (S)-4-Isopropyl-N-methyl-N-(3-methyl-1-(pyrrolidin-1-yl)butan-2-yl)benzamide], the IC50 amounted to 7.1 µM under setting [1] and 9.7 µM under setting [2].

As for `Cc1cc(C(=O)N(C)[C@H](CN2CCCC2)C(C)C)ccc1Cl` [Example 16.50, (S)-4-Chloro-N,3-dimethyl-N-(3-methyl-1-(pyrrolidin-1-yl)butan-2-yl)benzamide], the IC50 under setting [1] was determined as 0.42 µM.

Take `CC(C)[C@@H](CN1CCCC1)N(C)C(=O)c1ccc(Cl)c(Cl)c1` [Example 16.51, (S)-3,4-Dichloro-N-methyl-N-(3-methyl-1-(pyrrolidin-1-yl)butan-2-yl)benzamide]: the IC50 under setting [1] is 0.46 µM.

Turning to `CC(C)[C@@H](CN1CCCC1)N(C)C(=O)c1ccc(Br)c(F)c1` [Example 16.52, (S)-4-Bromo-3-fluoro-N-methyl-N-(3-methyl-1-(pyrrolidin-1-yl)butan-2-yl)benzamide], under setting [1], the IC50 came to 3.2 µM.

Regarding `CC(C)[C@@H](CN1CCCC1)N(C)C(=O)c1ccc(Cl)cc1F` [Example 16.53, (S)-4-Chloro-2-fluoro-N-methyl-N-(3-methyl-1-(pyrrolidin-1-yl)butan-2-yl)benzamide], the IC50 under setting [1] came out at 0.9 µM.

`CC(C)[C@@H](CN1CCCC1)N(C)C(=O)c1ccccc1OC(F)F` [Example 16.54, (S)-2-(Difluoromethoxy)-N-methyl-N-(3-methyl-1-(pyrrolidin-1-yl)butan-2-yl)benzamide]: the concentration for half-maximal inhibition (IC50) under setting [1] was 6 µM and the IC50 under setting [2] came out at 9.1 µM.

With `CC(C)[C@H](CN1CCCC1)N(C)C(=O)c1ccc(Cl)c(Cl)c1` [Example 16.56, (R)-3,4-Dichloro-N-methyl-N-(3-methyl-1-(pyrrolidin-1-yl)butan-2-yl)benzamide], the IC50 under setting [1] is 3.6 µM.

`CC(C)[C@H](CN1CCCC1)N(C)C(=O)c1ccc(Br)cc1` [Example 16.57, (R)-4-Bromo-N-methyl-N-(3-methyl-1-(pyrrolidin-1-yl)butan-2-yl)benzamide]: the IC50 is 11 µM under setting [1] and 8.8 µM under setting [2].

For the compound `CC(C)[C@H](CN1CCCC1)N(C)C(=O)c1ccc(Cl)cc1Cl` [Example 16.58, (R)-2,4-Dichloro-N-methyl-N-(3-methyl-1-(pyrrolidin-1-yl)butan-2-yl)benzamide], under setting [1], the IC50 stood at 5.8 µM.

Take `CC(C)[C@H](CN1CCCC1)N(C)C(=O)c1ccc(Cl)cc1F` [Example 16.59, (R)-4-Chloro-2-fluoro-N-methyl-N-(3-methyl-1-(pyrrolidin-1-yl)butan-2-yl)benzamide]: the IC50 under setting [1] amounted to 18 µM.

In the case of `CC(C)[C@H](CN1CCCC1)N(C)C(=O)c1ccc(Br)c(F)c1` [Example 16.60, (R)-4-Bromo-3-fluoro-N-methyl-N-(3-methyl-1-(pyrrolidin-1-yl)butan-2-yl)benzamide], the IC50 under setting [1] was determined as 16 µM.

As to `CC[C@@H](CN1CCCC1)N(C)C(=O)c1ccc(Br)cc1` [Example 17.1, (S)-4-Bromo-N-methyl-N-(1-(pyrrolidin-1-yl)butan-2-yl)benzamide], the IC50 under setting [2] was 12 µM.

`CC[C@@H](CN1CCCC1)N(C)C(=O)c1ccc(Cl)c(Cl)c1` [Example 17.2, (S)-3,4-Dichloro-N-methyl-N-(1-(pyrrolidin-1-yl)butan-2-yl)benzamide]: under setting [2], the IC50 came out at 1.4 µM.

As to `Cc1cc(C(=O)N(C)[C@H](CN2CC[C@@H](O)C2)C(C)C)ccc1F` [Example 17.3, 4-Fluoro-N—((S)-1-((R)-3-hydroxypyrrolidin-1-yl)-3-methylbutan-2-yl)-N,3-dimethylbenzamide], the IC50 under setting [2] worked out at 11 µM.

For the compound `CC(C)[C@@H](CN1CC[C@@H](O)C1)N(C)C(=O)c1ccc(Cl)cc1` [Example 17.4, 4-Chloro-N—((S)-1-((R)-3-hydroxypyrrolidin-1-yl)-3-methylbutan-2-yl)-N-methylbenzamide], the IC50 under setting [2] is 17 µM.

`CC(C)[C@@H](CN1CC[C@@H](O)C1)N(C)C(=O)c1ccc(Br)cc1` [Example 17.5, 4-Bromo-N—((S)-1-((R)-3-hydroxypyrrolidin-1-yl)-3-methylbutan-2-yl)-N-methylbenzamide]: the IC50 under setting [2] was found to be 2.7 µM.

As to `CC(C)[C@@H](CN1CC[C@@H](O)C1)N(C)C(=O)c1ccc(F)c(Cl)c1` [Example 17.6, 3-Chloro-4-fluoro-N—((S)-1-((R)-3-hydroxypyrrolidin-1-yl)-3-methylbutan-2-yl)-N-methylbenzamide], under setting [2], the IC50 was 12 µM.

Consider `CC(C)[C@@H](CN1CC[C@@H](O)C1)N(C)C(=O)c1ccc(F)c(C(F)(F)F)c1` [Example 17.7, 4-Fluoro-N—((S)-1-((R)-3-hydroxypyrrolidin-1-yl)-3-methylbutan-2-yl)-N-methyl-3-(trifluoromethyl)benzamide], for which the IC50 under setting [2] was 3.6 µM.

Take `CC(C)[C@@H](CN1CCCC1)N(C(=O)c1ccc(Cl)cc1)C1CCCC1` [Example 20, (S)-4-Chloro-N-cyclopentyl-N-(3-methyl-1-(pyrrolidin-1-yl)butan-2-yl)benzamide]: the IC50 under setting [2] was 11 µM.

With `Cc1ccc(C(=O)N(C)[C@H](CN2CCC(F)(F)C2)C(C)C)cc1C` [Example 21, (S)—N-(1-(3,3-Difluoropyrrolidin-1-yl)-3-methylbutan-2-yl)-N,3,4-trimethylbenzamide], the IC50 under setting [2] stood at 19 µM.

On to `Cc1cc(C(=O)N(C)[C@](C)(CN2CC(O)C2)C(C)C)ccc1F` [Example 22, (S)-4-Fluoro-N-(1-(3-hydroxyazetidin-1-yl)-2,3-dimethylbutan-2-yl)-N,3-dimethylbenzamide], for which the IC50 under setting [2] stood at 19 µM.

On to `CCC[C@@H](CN1CC(O)C1)N(C)C(=O)c1ccc(C)c(C)c1` [Example 23, (S)—N-(1-(3-Hydroxyazetidin-1-yl)pentan-2-yl)-N,3,4-trimethylbenzamide], for which, under setting [2], the IC50 is 0.44 µM.

As to `Cc1cc(C(=O)N(C)[C@H](CN2CCC(O)CC2)C(C)C)ccc1F` [Example 24, (S)-4-Fluoro-N-(1-(4-hydroxypiperidin-1-yl)-3-methylbutan-2-yl)-N,3-dimethylbenzamide], the IC50 under setting [2] came out at 4 µM.

Turning to `Cc1cc(C(=O)N(C)[C@@H](CN2CCC(O)CC2)C(C)C)ccc1F` [Example 25, (R)-4-Fluoro-N-(1-(4-hydroxypiperidin-1-yl)-3-methylbutan-2-yl)-N,3-dimethylbenzamide], the IC50 under setting [2] worked out at 17 µM.

Regarding `Cc1cc(C(=O)N(C)[C@H](CN2CCC(C#N)CC2)C(C)C)ccc1F` [Example 26, (S)—N-(1-(4-Cyanopiperidin-1-yl)-3-methylbutan-2-yl)-4-fluoro-N,3-dimethylbenzamide], under setting [2], the IC50 was found to be 7 µM.

As for `CC(C)[C@@H](CN1CCC(O)CC1)N(C)C(=O)c1ccc(Cl)cc1` [Example 27, (S)-4-Chloro-N-(1-(4-hydroxypiperidin-1-yl)-3-methylbutan-2-yl)-N-methylbenzamide], the IC50 under setting [2] was determined as 1.1 µM.

Turning to `COCC1CN(C[C@H](C(C)C)N(C)C(=O)c2ccc(F)c(F)c2)C1` [Example 28, (S)-3,4-Difluoro-N-(1-(3-(methoxymethyl)azetidin-1-yl)-3-methylbutan-2-yl)-N-methylbenzamide], the 50% inhibitory concentration (IC50) under setting [2] worked out at 19 µM.

The term IC50 denotes the concentration that inhibits the measured activity by half.
